# Assays:
# [1] = tested on: C57BL/6N mice on 42% high fat diet; experiment: 4-week treatment of high fat diet fed mice: body weight, body composition, cholesterol, oral glucose tolerance; type: in vivo; settings: compared to placebo
# Description: (§1) In brief, three cohorts of male C57BL/6N mice, including a total of 100 mice, were used in these studies. Five-week-old mice were placed on a 42% high fat diet for 4 weeks. The treatments were provided for 4 weeks, during which time mice were maintained on the 42% high fat diet.
# (§2) Mirabegron, an ADRB3 agonist, was administered at an 8 mg/kg daily dose. Atenolol is an ADRB1 antagonist and was administered to the mice at, on average, 60 mg/kg per day. Mirabegron or its buffer (5% PEG 400; placebo) were administered to the mice daily by gavage for 4 weeks. Mice were also given ad libitum access to a water bottle or a water bottle containing atenolol. […] Oral glucose tolerance testing was performed on overnight fasted mice administered 5 μL 60% glucose solution per g BW using a gavage tube; blood glucose levels were determined with a glucometer using blood from tail nicks at times 0, 15, 30, 60 and 120 minutes. Blood pressure measurements were obtained using a CODA-HT8 High Throughput Noninvasive Blood Pressure system with 8 activated channels for use with mice and rats from Kent Scientific. Methods and statistical analysis were performed as described above.
# [2] = tested on: C57BL/6N mice on 42% high fat diet; settings: 4 weeks, compared to placebo; mirabegron 8 mg/kg daily, atenolol 60 mg/kg per day
# Description: as §1, §2
# [3] = tested on: Ad-Adrb1KO mice and littermate controls; experiment: Acute CL-316243 injection: body weight, blood glucose, BAT mass and BAT histology; type: in vivo
# Description: Physiological relevance of crosstalk between ADRB1 and ADRB3 in adipocytes was assessed. […] Four hours after CL-316243 injection, mice were sacrificed and BAT depots were dissected.
# Treatment with CL 316, 243.
# Histology. […] Samples were then dehydrated, embedded in paraffin, and cut into […] sections. Sections were stained with hematoxylin and eosin (H&E) to perform general histology. All pictures were taken at a magnification of 20× on a Zeiss Axioskop 2 microscope connected to a digital camera (AxioCam; Zeiss, Thornwood, NY). Only the sharpness, contrast, and brightness were adjusted.
# [4] = tested on: Adrb1, Ppargc1a and Ucp1 mRNA expression in eWAT, iWAT and BAT; experiment: Quantitative real-time PCR of adipose depots after CL-316243 injection; type: in vivo, mice; settings: CL-316243 0.1 mg/kg
# Description: Quantitative real-time PCR. […] Total mRNA was isolated from eWAT, iWAT and interscapular BAT using the Aurum™ Total RNA Fatty and Fibrous Tissue Kit (Bio-Rad, 732-6830). RNA concentration was estimated from absorbance at 260 nm. cDNA synthesis was performed using the iScript Advanced cDNA Synthesis Kit (Bio-Rad, 172-5038). mRNA extraction and cDNA synthesis were performed following the manufacturer's instructions. cDNA was diluted in DNase-free water before quantification by real-time PCR. Relative quantification of gene expression was performed on diluted cDNA in duplicate samples using a CFX384 Touch™ real-time PCR (Bio-Rad). Fold differences in targeted mRNA expression were calculated using the 2-delta cycle threshold method and data were normalized to beta-microglobulin (B2m) expression. TaqMan gene expression assays for Adrb1 (Mm00431701_s1), B2m (Mm00437762_m1), Ppargc1a (Mm01208835_m1), and Ucp1 (Mm01244861_m1) were purchased from ThermoFisher Scientific.
# ADRB3 = settings: cited from earlier work
# [5] = tested on: Ad-Adrb1KO mice and littermate controls; experiment: Blood glucose over 60 minutes after CL-316243 dose range; settings: for reducing glycemia: 0.001 mg/kg
# Description: Tail vein blood glucose levels were then monitored using a glucometer (Bayer's Contour Blood Glucose Monitoring System.
# (§3) Treatment with CL 316, 243. Mice were fasted for 2 hours (0800-1000) and then given an injection of the ADRB3 agonist CL 316,243 (“CL”, 0.001-1 mg/kg) or vehicle (saline). In some cohorts, human recombinant insulin (Eli Lilly) or D-glucose (Sigma 49163-100ML) was co-administrated with CL.
# [6] = tested on: Ad-Adrb1KO mice and littermate controls; experiment: Co-administration of CL-316243 with insulin or glucose: blood glucose, plasma insulin, NEFA; settings: for increase in plasma insulin levels: CL-316243 0.1 mg/kg co-administered with glucose, 30 minutes after vs before
# Description: as §3
# Evaluation of insulin and NEFA levels. Blood from tail vein was collected before and 30 minutes after co-administration of CL with D-glucose into EDTA tubes. Plasma was isolated by centrifugation (4000 g×10 minutes at 4° C.). Plasma insulin (Mouse Ultrasensitive Insulin ELISA, ALPCO, 80-INSMSU-E01) and NEFA (FUJIFILM Wako Diagnostics-NEFA Reagent, 999-34691, 995-34791, 991-34891, 993-35191) levels were measured following manufacturer recommendations.
# [7] = 4 weeks, mirabegron 8 mg/kg daily gavage, atenolol 60 mg/kg per day in water
# [8] = CL-316243 0.1 mg/kg, Ad-Adrb1KO mice
# [9] = every adipose depot, independent of the genotype
structure (smiles),measurement,setting,value
Nc1nc(CC(=O)Nc2ccc(CCNC[C@H](O)c3ccccc3)cc2)cs1 [mirabegron],LDL cholesterol,[1]; [7],significant decreases
same,epididymal fat mass,[1]; [7],significant decreases
same,total body weight,[1]; [7],significant decreases
same,total cholesterol,[1]; [7],significant decreases
same,total fat mass,[1]; [7],significant decreases
same,glucose tolerance (blood glucose area under the curve),[1]; oral glucose tolerance test after 4 weeks,significant improvements
same,diastolic blood pressure (DBP),[2],elevated
same,mean arterial blood pressure (MBP),[2],elevated
same,systolic blood pressure (SBP),[2],elevated
"C[C@H](Cc1ccc2c(c1)OC(C(=O)[O-])(C(=O)[O-])O2)NC[C@H](O)c1cccc(Cl)c1.[Na+].[Na+] [CL-316243, 5-[(2R)-2-[[(2R)-2-(3-Chlorophenyl)-2-hydroxyethyl]amino]propyl]-1,3-benzodioxole-2,2-dicarboxylic acid disodium salt]",BAT mass,[3]; [8],comparable to CL-316243-treated littermates
same,CL-316243-induced mobilization of intracellular triglycerides in BAT,[3]; [8],markedly improved
same,lipid droplets in H&E-stained BAT,"[3]; CL-316243 0.1 mg/kg, mice lacking Adrb1 in adipocytes",near-complete depletion
same,weight of the mice,"[3]; acute CL-316243 0.1 mg/kg, Ad-Adrb1KO mice and littermate controls",did not significantly change
same,efficiency to reduce blood glucose levels (treatment x genotype),"[3]; acute CL-316243 0.1 mg/kg, Ad-Adrb1KO vs littermate controls",significant interaction
same,Adrb1 mRNA expression (significantly reduced or not),"[4]; BAT, littermate controls",not
same,Adrb1 mRNA expression,"[4]; eWAT, littermate controls",significantly reduced
same,Ppargc1a mRNA expression,[4]; [9],increase
same,Ucp1 mRNA expression,[4]; [9],increase
same,Adrb1 mRNA expression (significantly reduced or not),"[4]; iWAT, littermate controls",not in iWAT
same,selectivity for ADRB3 over ADRB1 and ADRB2,ADRB3,over 10000 fold
same,EC50,ADRB3; read-out: EC50 (ADRB3 agonist),3 nM
same,reducing glycemia,[5]; Ad-Adrb1KO mice,still effective
same,reducing glycemia,[5]; littermate controls,not littermate controls
same,blood glucose,"[5]; both genotypes, even at low dose of 0.01 mg/kg, 60-minute period",glucose lowering effect
same,increase in plasma insulin levels,[6]; Ad-Adrb1KO mice,43 fold
same,increase in plasma insulin levels,[6]; littermate controls,12 fold
same,glucose clearance,"[6]; CL-316243 0.1 mg/kg co-administrated with glucose, Ad-Adrb1KO mice",drastically improved
same,insulin sensitivity,"[6]; CL-316243 0.1 mg/kg in combination with insulin, Ad-Adrb1KO mice compared to control littermates",slight but significant improvement
same,plasma NEFA levels between Ad-Adrb1KO mice and littermate controls,[6]; CL-316243 co-administrated with glucose,no difference

# From patent publication US20240374557A1, “BETA ADRENERGIC RECEPTOR COMPOSITIONS AND METHODS OF USE THEREOF” (THE BOARD OF REGENTS OF THE UNIVERSITY OF TEXAS SYSTEM, priority 2021, published 2024)
